We go through 28 compounds from ChEMBL document CHEMBL6153138, “Discovery of Novel Aromatic Urea-Imidazole Salt Derivatives for Cancer Therapy via Targeting ERK1/2” (J Med Chem, 2025).

Test [1] concerns MCF7. As to the kind of experiment: Growth inhibition of human MCF7 cells at 5 uM incubated for 48 hrs by CCK-8 method relative to control. As to conditions: read-out: GI. The format is functional. (In general: Tetrazolium assays rely on reduction of a dye to a coloured formazan, in cell work by metabolically active cells.)
The subject of test [2] is 5637. The test can be described thus: Growth inhibition of human 5637 cells at 5 uM incubated for 48 hrs by CCK-8 method relative to control. Type of test: functional. As to conditions: read-out: GI.
The target of test [3] is Mitogen-activated protein kinase 1 (Homo sapiens, UniProt P28482). As to the kind of experiment: Inhibition of ERK2 (unknown origin) incubated for 60 mins by luminescence based ADP-Glo kinase assay. A general note: ADP-Glo first removes unused ATP, then detects ADP through luciferase.
Chain of Mitogen-activated protein kinase 1 (P28482 whole entry): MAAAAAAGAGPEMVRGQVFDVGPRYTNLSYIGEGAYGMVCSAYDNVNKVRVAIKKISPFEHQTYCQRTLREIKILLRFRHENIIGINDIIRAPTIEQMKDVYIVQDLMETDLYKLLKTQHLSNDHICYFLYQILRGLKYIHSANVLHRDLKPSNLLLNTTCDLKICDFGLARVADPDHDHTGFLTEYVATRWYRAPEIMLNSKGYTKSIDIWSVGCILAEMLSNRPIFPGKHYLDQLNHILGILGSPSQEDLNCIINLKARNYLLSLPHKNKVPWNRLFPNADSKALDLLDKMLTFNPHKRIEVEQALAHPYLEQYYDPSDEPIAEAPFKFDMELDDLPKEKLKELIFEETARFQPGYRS
In the next test the test system is HepG2. As to the kind of experiment: Growth inhibition of human HepG2 cells at 5 uM incubated for 48 hrs by CCK-8 method relative to control. The format is functional. As to conditions: read-out: GI.
A further test has as its system A549. The test can be described thus: Growth inhibition of human A549 cells at 5 uM incubated for 48 hrs by CCK-8 method relative to control. Type of test: functional. The following applies: read-out: GI.
For test [4], the system named is MCF7. As to the kind of experiment: Antiproliferative activity against human MCF7 cells incubated for 48 hrs by CCK-8 method. Type of test: functional, cell-based. As to conditions: MCF7, 48 h.
The target in test [5] is Mitogen-activated protein kinase 3 (Homo sapiens, UniProt P27361). As to the kind of experiment: Inhibition of ERK1 (unknown origin) incubated for 60 mins by luminescence based ADP-Glo kinase assay.
Chain of Mitogen-activated protein kinase 3 (P27361 whole entry): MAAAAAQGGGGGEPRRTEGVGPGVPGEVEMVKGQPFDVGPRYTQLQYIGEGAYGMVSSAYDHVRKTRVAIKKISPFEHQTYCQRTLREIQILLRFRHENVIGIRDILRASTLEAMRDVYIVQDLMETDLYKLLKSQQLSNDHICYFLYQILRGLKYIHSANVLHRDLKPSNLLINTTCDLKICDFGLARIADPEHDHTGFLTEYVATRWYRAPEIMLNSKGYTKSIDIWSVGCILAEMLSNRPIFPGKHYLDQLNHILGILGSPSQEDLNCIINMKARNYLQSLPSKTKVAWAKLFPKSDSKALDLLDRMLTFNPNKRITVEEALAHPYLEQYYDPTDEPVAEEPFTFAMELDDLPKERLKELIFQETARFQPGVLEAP
Test [6] deals with 5637. As to the kind of experiment: Antiproliferative activity against human 5637 cells incubated for 48 hrs by CCK-8 method. Type of test: functional, cell-based. As to conditions: Homo sapiens, 5637, 48 h.
In the next test the test system is 4T1. The test can be described thus: Antiproliferative activity against mouse 4T1 cells incubated for 48 hrs by CCK-8 method. Type of test: functional, cell-based. The following applies: 4T1, 48 h.
Another test relates to MCF-10A. The test can be described thus: Antiproliferative activity against human MCF-10A cells incubated for 48 hrs by CCK-8 method. The format is functional, cell-based.
In the next test the test system is MDA-MB-468. The test can be described thus: Antiproliferative activity against human MDA-MB-468 cells incubated for 48 hrs by CCK-8 method. Type of test: functional, cell-based. As to conditions: MDA-MB-468, 48 h.
The next test has as its system HCC1937. As to the kind of experiment: Antiproliferative activity against human HCC1937 cells incubated for 48 hrs by CCK-8 method. Type of test: functional, cell-based. As to conditions: HCC1937, 48 h.

By IC50 is commonly meant the concentration that gives 50% inhibition. High values mean weaker potency in that assay, low ones greater potency in that assay. Take `O=C(Nc1cc(C(F)(F)F)cc(C(F)(F)F)c1)N[C@@H](Cc1ccccc1)Cn1cc(C(F)(F)F)[n+](Cc2ccccc2)c1`: the inhibition of growth at 5 µM in the test with MCF7 [1] stood at 19.4%; with 5637 [2] it was 26.4%; with HepG2, 31.2%; with A549 it was 13.5%. For the same compound, it took 297 nM to reach half-maximal inhibition in test [3] (IC50).

For `Cc1n(C[C@@H](NC(=O)Nc2cc(C(F)(F)F)cc(C(F)(F)F)c2)C(C)C)cc[n+]1Cc1ccccc1`, the inhibition of growth at 5 µM with MCF7 [1] is 7.92%; with 5637 [2] it was 21.1%; in the test on HepG2, -4.95%; in the test on A549 it was 7.87%. This compound returned an IC50 in test [3] of 535 nM.

As for `CC(C)[C@@H](Cn1c[n+](Cc2ccccc2)c2ccccc21)NC(=O)Nc1cc(C(F)(F)F)cc(C(F)(F)F)c1`, the inhibition of growth at 5 µM came to 91.9% with MCF7 [1], 56.5% with 5637 [2], 39.5% in the test with HepG2 and 30.2% with A549. For the same compound, the IC50 came to 285 nM in test [3] and 3370 nM in the test with MCF7 [4].

For the compound `Cc1n(C[C@H](Cc2ccccc2)NC(=O)Nc2cc(C(F)(F)F)cc(C(F)(F)F)c2)cc[n+]1Cc1ccccc1`, the inhibition of growth at 5 µM with MCF7 [1] amounted to 40.5%; in the test on 5637 [2], 12.8%; in the test with HepG2, 20.8%; in the test on A549, 2.07%. In test [3], inhibition was half-maximal at 376 nM (IC50).

In the case of `CC(=O)N[C@@H](Cc1ccccc1)Cn1c[n+](Cc2cccc3ccccc23)c2ccccc21`, the IC50 in [3] and in [5] was above 10000 nM each time.

In the case of `O=C(N[C@@H](Cc1ccccc1)Cn1c[n+](Cc2cccc3ccccc23)c2ccccc21)c1ccccc1`, the IC50 in test [3] and in test [5] was above 10000 nM in each case.

For `CC[C@@H](C)[C@@H](Cn1cc(C(F)(F)F)[n+](Cc2ccccc2)c1)NC(=O)Nc1cc(C(F)(F)F)cc(C(F)(F)F)c1`, the IC50 with 5637 [6] came out at 3470 nM; in [3], 507 nM; with MCF7 [4], 3480 nM. Besides, the inhibition of growth at 5 µM was 100% in the test on MCF7 [1], 96.8% with 5637 [2], 13.9% in the test with HepG2 and 23.5% in the test on A549.

In the case of `O=C(Nc1cc(C(F)(F)F)cc(C(F)(F)F)c1)N[C@@H](Cc1ccccc1)Cn1c[n+](Cc2ccccc2Br)c2ccccc21`, the IC50 in the test on 4T1 amounted to 3510 nM; in the test with MCF-10A, 9250 nM; in test [3], 236 nM; in the test with MDA-MB-468, 1620 nM; with MCF7 [4], 1940 nM; in the test on HCC1937, 3000 nM.

On to `O=C(Nc1cc(C(F)(F)F)cc(C(F)(F)F)c1)N[C@@H](Cc1ccccc1)Cn1c[n+](Cc2ccc(Br)cc2)c2ccccc21`, for which the IC50 was 6770 nM in the test with 4T1; above 10000 nM in the test on MCF-10A; 338 nM in test [3]; 2220 nM in the test on MDA-MB-468; 2190 nM with MCF7 [4]; 1820 nM in the test with HCC1937.

With `N#Cc1ccccc1C[n+]1cn(C[C@H](Cc2ccccc2)NC(=O)Nc2cc(C(F)(F)F)cc(C(F)(F)F)c2)c2ccccc21`, the IC50 in the test on 4T1 is 7410 nM; with MCF-10A, above 10000 nM; in [3] it was 414 nM; with MDA-MB-468, 3640 nM; in the test on MCF7 [4], 3840 nM; in the test with HCC1937, 5600 nM.

With `O=C(Nc1cc(C(F)(F)F)cc(C(F)(F)F)c1)N[C@@H](Cc1ccccc1)Cn1c[n+](Cc2ccccc2Cl)c2ccccc21`, the IC50 amounted to 3880 nM with 4T1; 9180 nM in the test with MCF-10A; 235 nM in [3]; 2060 nM in the test on MDA-MB-468; 1990 nM with MCF7 [4]; 1870 nM with HCC1937.

In the case of `Cc1ccc(NC(=O)N[C@@H](Cc2ccccc2)Cn2c[n+](Cc3ccc4ccccc4c3)c3ccccc32)cc1`, the IC50 with 4T1 is 6620 nM; with MCF-10A it was above 10000 nM; in [3] it was 399 nM; in the test with MDA-MB-468, 3690 nM; in the test on MCF7 [4], 2520 nM; in the test with HCC1937, 3620 nM.

`CC[C@@H](C)[C@@H](Cn1cc[n+](Cc2ccccc2)c1)NC(=O)Nc1cc(C(F)(F)F)cc(C(F)(F)F)c1`: the inhibition of growth at 5 µM with MCF7 [1] worked out at 86.9%; in the test with 5637 [2] it was 85.6%; in the test with HepG2, 47.2%; with A549 it was 8.36%. In test [3], this compound displayed an IC50 of 483 nM.

As for `O=C(N[C@@H](Cc1ccccc1)Cn1cnc2ccccc21)c1ccccc1`, the IC50 in [3] and in test [5] was above 10000 nM in each case.

`Cc1cccc(C[n+]2cn(C[C@H](Cc3ccccc3)NC(=O)Nc3cc(C(F)(F)F)cc(C(F)(F)F)c3)c3ccccc32)c1`: the IC50 is 6780 nM in the test with 4T1; above 10000 nM in the test on MCF-10A; 275 nM in test [3]; 2360 nM with MDA-MB-468; 1700 nM in the test on MCF7 [4]; 3720 nM in the test on HCC1937.

For `O=C(Nc1cc(C(F)(F)F)cc(C(F)(F)F)c1)N[C@@H](Cc1ccccc1)Cn1c[n+](Cc2ccccc2C(F)(F)F)c2ccccc21`, the IC50 in the test on 4T1 was 4970 nM; in the test on MCF-10A it was 7680 nM; in test [3], 252 nM; in the test on MDA-MB-468 it was 1880 nM; in the test on MCF7 [4], 1720 nM; in the test with HCC1937 it was 2960 nM.

With `O=C(Nc1ccc(C(F)(F)F)cc1)N[C@@H](Cc1ccccc1)Cn1c[n+](Cc2ccc3ccccc3c2)c2ccccc21`, the IC50 in the test with 4T1 is 3720 nM; in the test with MCF-10A, above 10000 nM; in [3], 217 nM; with MDA-MB-468, 2080 nM; with MCF7 [4] it was 1070 nM; in the test on HCC1937, 2980 nM.

As for `CC(=O)N[C@@H](Cc1ccccc1)Cn1cnc2ccccc21`, the IC50 in test [3] and in test [5] was above 10000 nM in each case.

In the case of `O=C(Nc1cc(C(F)(F)F)cc(C(F)(F)F)c1)N[C@@H](Cc1ccccc1)Cn1cc[n+](Cc2ccccc2)c1`, the inhibition of growth at 5 µM is 82% in the test with MCF7 [1], 61.9% in the test with 5637 [2], 38.1% with HepG2 and 9.26% with A549. For the same compound, in test [3], the IC50 was 272 nM.

For `CC(C)[C@@H](Cn1cc[n+](Cc2ccccc2)c1)NC(=O)Nc1cc(C(F)(F)F)cc(C(F)(F)F)c1`, the inhibition of growth at 5 µM came to 55.7% with MCF7 [1], 31.5% in the test with 5637 [2], 24.5% in the test with HepG2 and 7.18% in the test on A549. Also, the IC50 in test [3] was 606 nM.

With `O=C(Nc1ccc(Br)cc1)N[C@@H](Cc1ccccc1)Cn1c[n+](Cc2ccc3ccccc3c2)c2ccccc21`, the IC50 in the test on 4T1 was 6370 nM; in the test on MCF-10A, above 10000 nM; in [3] it was 277 nM; in the test on MDA-MB-468, 3050 nM; with MCF7 [4] it was 2780 nM; in the test on HCC1937 it was 6560 nM.

In the case of `N#Cc1ccc(C[n+]2cn(C[C@H](Cc3ccccc3)NC(=O)Nc3cc(C(F)(F)F)cc(C(F)(F)F)c3)c3ccccc32)cc1`, the IC50 with 4T1 is above 10000 nM; in the test with MCF-10A it was above 10000 nM; in test [3] it was 392 nM; in the test with MDA-MB-468, 2660 nM; in the test with MCF7 [4], 5030 nM; with HCC1937, 3820 nM.

Consider `O=C(Nc1cc(C(F)(F)F)cc(C(F)(F)F)c1)N[C@@H](Cc1ccccc1)Cn1c[n+](Cc2cccc(F)c2)c2ccccc21`, for which the IC50 was determined as 5330 nM in the test on 4T1; 9320 nM with MCF-10A; 133 nM in test [3]; 1710 nM in the test on MDA-MB-468; 2430 nM with MCF7 [4]; 3170 nM with HCC1937.

Take `CC[C@@H](C)[C@@H](Cn1cc[n+](Cc2ccccc2)c1C)NC(=O)Nc1cc(C(F)(F)F)cc(C(F)(F)F)c1`: the inhibition of growth at 5 µM amounted to 64% in the test with MCF7 [1], 17.6% with 5637 [2], 71.3% in the test on HepG2 and 8.26% in the test on A549. This compound also showed an IC50 in test [3] of 406 nM.

In the case of `O=C(Nc1cc(C(F)(F)F)cc(C(F)(F)F)c1)N[C@@H](Cc1ccccc1)Cn1c[n+](Cc2ccccc2)c2ccccc21`, the inhibition of growth at 5 µM with MCF7 [1] stood at 99.5%; in the test on 5637 [2], 56.8%; in the test on HepG2, 35.3%; in the test on A549 it was 50.6%. The results for the IC50 (in [3]; in the test with MCF7 [4]) were 206 nM and 1550 nM, respectively.

As to `Cc1cc(C)cc(NC(=O)N[C@@H](Cc2ccccc2)Cn2c[n+](Cc3ccc4ccccc4c3)c3ccccc32)c1`, the IC50 with 4T1 was 7820 nM; in the test with MCF-10A, above 10000 nM; in test [3], 327 nM; in the test with MDA-MB-468, 3250 nM; in the test with MCF7 [4], 2700 nM; with HCC1937, 5980 nM.

As to `Cc1ccc(C[n+]2cn(C[C@H](Cc3ccccc3)NC(=O)Nc3cc(C(F)(F)F)cc(C(F)(F)F)c3)c3ccccc32)cc1`, the IC50 in the test with 4T1 was 5800 nM; in the test on MCF-10A it was above 10000 nM; in test [3] it was 315 nM; in the test with MDA-MB-468, 2240 nM; with MCF7 [4], 2990 nM; in the test with HCC1937 it was 1490 nM.

For the compound `O=C(Nc1cc(C(F)(F)F)cc(C(F)(F)F)c1)N[C@@H](Cc1ccccc1)Cn1c[n+](Cc2cccc(Cl)c2)c2ccccc21`, the IC50 with 4T1 is 3680 nM; with MCF-10A, above 10000 nM; in test [3], 166 nM; in the test with MDA-MB-468 it was 2120 nM; in the test on MCF7 [4], 2340 nM; with HCC1937, 3400 nM.
